Literature values, collected in publication PMC6311693 (ACS Central Science, 2018).

Conditions: 8 mg/kg; musculoskeletal system, increases in creatine phosphokinase

Compound: CCCCCCCCCC(=O)N[C@@H](Cc1c[nH]c2ccccc12)C(=O)N[C@H](CC(N)=O)C(=O)N[C@@H](CC(=O)O)C(=O)N[C@@H]1C(=O)NCC(=O)N[C@@H](CCCN)C(=O)N[C@@H](CC(=O)O)C(=O)N[C@H](C)C(=O)N[C@@H](CC(=O)O)C(=O)NCC(=O)N[C@H](CO)C(=O)N[C@@H]([C@H](C)CC(=O)O)C(=O)N[C@@H](CC(=O)c2ccccc2N)C(=O)O[C@@H]1C [daptomycin]
- adverse effects in phase 1 clinical trials: unacceptable adverse effects
